According to paper PMC11811207, “Macrocycle-based PROTACs selectively degrade cyclophilin A and inhibit HIV-1 and HCV” (Nature Communications, 2025):

Experiments:
CypA and CypB = CypA and CypB immunoblot in Jurkat cells treated with CsA-based PROTAC JW4-10; assay type: cell-based, human
Method: (§1) U87 cells (5 × 10^4 cells/well, 12 well plate), Huh7 cells (1 × 10^5 cells/well, 12 well plate), Calu-3 cells (1 × 10^5 cells/well, 12 well plate), Jurkat cells (5 × 10^5 cells/mL, 24 well plate, 1 mL/well), THP-1 Dual cells (4 × 10^5 cells/mL, 24 well plate, 1 mL/well), primary MDMs (confluent well), or primary resting/activated T cells (1-2 × 10^6 cells/well, 96 well plate) were treated with 5 μM Cyp-PROTAC or DMSO for 48 h. […] MLN4924 was washed out before the addition of Cyp-PROTAC, but VHLi was kept in for the duration of the experiment. In competitor experiments, Jurkat cells were treated with 10 μM TWH106 and 1 μM Cyp-PROTAC simultaneously for 48 h. For the time course experiments, Jurkat cells were treated with 5 μM Cyp inhibitor or DMSO and cells were harvested at indicated time points. For the titration experiments, Jurkat cells were treated with 0.01 – 10 μM Cyp inhibitor or DMSO for 24 h or 48 h. Before harvesting for immunoblot, cells were washed twice in PBS.
(§2) Cells were lysed in RIPA buffer (50 mM Tris pH 8.0, 150 mM sodium chloride, 1.0% Triton X-100, 0.5% sodium deoxycholate, 0.1% sodium dodecyl sulphate (SDS)) supplemented with protease inhibitors (cOmplete mini, EDTA-free, Roche) and phosphatase inhibitors (PhosSTOP, Roche). After 10 min incubation on ice, samples were centrifuged (16000 × g, 10 min, 4 °C), and the supernatant protein content was determined using Pierce^TM BCA Protein Assay Kit (Thermo Fisher Scientific). Samples were combined with 4x Laemmli sample buffer (200 mM Tris pH 6.8, 40% glycerol, 8% SDS, 0.4% Bromophenol Blue) and the appropriate amount of RIPA buffer to normalise protein concentrations of samples and boiled for 5 min. Proteins were separated by SDS-PAGE on 15% polyacrylamide gels and transferred onto nitrocellulose membrane using the Trans-Blot Turbo Transfer System (Bio-Rad). […] Densitometry analysis was performed using ImageJ (v2.14.0), and normalised protein densities were calculated by normalisation to β-actin loading control and untreated control as stated. […]

CypA = biological target: T1, CypA (Homo sapiens, UniProt P62937); test: CypA degradation in Jurkat cells by immunoblot; assay type: cell-based; settings: for effect on CypA levels in the absence of PROTAC: Jurkat, MLN4924 1 μM 6 h or VHLi 50 μM
T1 construct: endogenous in cells; host or cells: Jurkat; also Calu-3, THP-1, MDMs, U87, Huh7, primary human CD4+ T cells
T1 sequence (P62937 whole entry): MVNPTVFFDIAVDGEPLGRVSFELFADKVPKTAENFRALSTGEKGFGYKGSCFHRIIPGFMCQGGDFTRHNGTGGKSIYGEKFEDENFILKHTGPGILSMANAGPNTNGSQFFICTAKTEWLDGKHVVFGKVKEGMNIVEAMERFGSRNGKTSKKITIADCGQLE
Method: as §1
as §2, with “(Bio-Rad). Blots were blocked in 5% milk in PBS-Tween for 1 h and incubated with primary antibodies in 5% milk in PBS-Tween overnight. After washing in PBS-Tween, blots were incubated with IRDye® fluorescent secondary antibodies (LI-COR) for 1 h, washed in PBS-Tween, then PBS, and visualised on an LI-COR Odyssey imaging system. Uncropped and unprocessed scans are provided in the Source Data file (main figures) and in the Figshare research data repository 10.6084/m9.figshare.c.7387381 (supplementary figures).” for “(Bio-Rad).”
DC50s and Dmaxs were calculated from sigmoidal (4-parameter logistic) fits, mean (n = 2 independent experiments).

THP-1 cell proteome = test: Mass spectrometry-based proteomics in THP-1 cells; assay type: cell-based, human; settings: THP-1, 5 μM, 72 h
Method: THP-1 Dual cells were treated with 5 μM Cyp inhibitor or DMSO for 72 h. After washing with PBS, cells were lysed (5% SDS, 5 mM tris(2-carboxyethyl)phosphine (TCEP), 10 mM chloroacetamide (CAA), 100 mM Tris, 1% Triton X-100, pH 8.5) and boiled for 10 min followed by sonication in a water bath for 10 min. Protein concentration was estimated by BCA assay (Thermo Fisher Scientific). Protein digestion was automated on a KingFisher APEX robot (Thermo Fisher Scientific) in a 96-well format using a protocol from Koenig et al.[83] with minor modifications. […]
Peptides were then dissolved in 0.5% TFA before liquid chromatography–tandem mass spectrometry (MS/MS) analysis. The mixture of tryptic peptides was analysed using an Ultimate3000 high-performance liquid chromatography system coupled online to an Eclipse mass spectrometer (Thermo Fisher Scientific). […]
All raw files were analysed by DIA-NN v1.8.1[84], searching against library generated automatically using Human reference proteome (UniProt) and standard settings: peptides from 7 to 30 amino acids, max number of missed cleavages of 1, oxidation (M) and protein-acetylation as only variable modifications. The data files generated by DIA-NN were analysed using Perseus version 2.0.10.0[85]. […]

CypB = biological target: T2, CypB (Homo sapiens, UniProt P23284); test: CypB levels in Jurkat cells by immunoblot; assay type: cell-based
T2 construct: endogenous in cells; host or cells: Jurkat
T2 sequence (P23284 34-216): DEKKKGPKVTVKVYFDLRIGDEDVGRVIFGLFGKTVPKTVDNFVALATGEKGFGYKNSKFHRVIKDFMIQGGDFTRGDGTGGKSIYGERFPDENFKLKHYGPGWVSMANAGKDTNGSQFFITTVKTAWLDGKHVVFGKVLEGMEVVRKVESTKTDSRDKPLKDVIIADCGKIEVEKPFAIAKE
Method: as §1, with “For the time course experiments, Jurkat cells were treated with 5 μM Cyp inhibitor or DMSO and cells were harvested at indicated time points. For the titration experiments, Jurkat cells were treated with 0.01 – 10 μM Cyp inhibitor or DMSO for 24 h or 48 h. Before harvesting for immunoblot, cells were washed twice in PBS.” left out
Cells were lysed in RIPA buffer (50 mM Tris pH 8.0, 150 mM sodium chloride, 1.0% Triton X-100, 0.5% sodium deoxycholate, 0.1% sodium dodecyl sulphate (SDS)) supplemented with protease inhibitors (cOmplete mini, EDTA-free, Roche) and phosphatase inhibitors (PhosSTOP, Roche). After 10 min incubation on ice, samples were centrifuged (16000 × g, 10 min, 4 °C), and the supernatant protein content was determined using Pierce^TM BCA Protein Assay Kit (Thermo Fisher Scientific). […] Densitometry analysis was performed using ImageJ (v2.14.0), and normalised protein densities were calculated by normalisation to β-actin loading control and untreated control as stated. […]

U87 cells = test: MTT viability assay, U87 cells; assay type: cell-based; settings: U87, 10 μM
Method: (§3) U87 cells (1 × 10^4 cells/well, 48 well plate) or Jurkat cells (5 × 10^3 cells/well, 96 well U-bottom plate) were treated with serial dilutions of Cyp inhibitors as indicated. After 48 h, the media was aspirated and replaced with fresh Cyp inhibitor dilutions and the lentiviral vector (MOI: 0.25) for a further 48 h. Experiments were carried out in triplicate.
(§4) 3-(4,5-Dimethyl-2-thiazolyl)-2,5-diphenyl-2H-tetrazolium bromide (MTT) assay was performed on U87 cells, Jurkat cells or Huh7 cells treated with Cyp inhibitors as indicated. At the time point indicated, 10% v/v MTT (stock at 5 mg/mL in PBS) (475989, Sigma Aldrich) was added, and cells were incubated for 1 - 2 h at 37 °C. 100 μL solubilisation solution (10% SDS and 0.01 M HCl) was added, and after overnight incubation at 37 °C, absorbance was measured at 570 nm. Experiments were carried out in triplicate.

Jurkat cells = test: MTT viability assay, Jurkat cells; assay type: cell-based, human; settings: highest concentrations tested
Method: as §3, §4

HCV JFH-1 replicon = test: HCV JFH-1 subgenomic replicon (luciferase) in Huh7 cells; assay type: cell-based; settings: Huh7, 5 μM pretreatment, washed out, not readded
Method: HCV JFH-1 subgenomic replicon (SGR) (pFKI389Luc/NS3-3’_dg_JFH, previously described)[87] plasmid DNA (10 μg) was linearised by digestion with MluI, and purified linearised DNA (1 μg) was used as a template for in vitro transcription, according to the MEGAscript T7 Transcription Kit instructions (Invitrogen). RNA was resuspended in nuclease-free water at a concentration of 1 μg/μL, aliquoted, and stored at − 80 °C.
HCV SGR RNA (5 μg or 1 μg) was electroporated into 2 × 10^6 or 2 × 10^5 Huh7 cells, respectively, using a Neon transfection system (Thermo Scientific). Single-cell suspensions were washed with PBS and resuspended in 100 μL or 10 μL of Buffer R, respectively. Resuspended cells were mixed with RNA and loaded into a Neon Tip and electroporated using the Neon Transfection system (1400 V, 20 ms, 1 pulse) and resuspended in 12 mL or 1.2 mL of media, respectively, prior to seeding in 96 well plates at a density of ~2 × 10^4 cells/well. […] Experiments were carried out in triplicate. Firefly luciferase activity was measured on a Glomax (Promega) at 4 h post electroporation (hpe) and 48 hpe using the SteadyGlo reagent (Promega) according to the manufacturer’s instructions. Data at 48 hpe were normalised to the input luciferase signal at 4 hpe.

full-length human CypA = full-length human CypA (Homo sapiens, UniProt P62937); test: SPR against CypA (immobilised on CM5 chip)
full-length human CypA, sequence (P62937 whole entry, the tested form may be a part): as the sequence (P62937 whole entry) above

N-truncated CypB = N-truncated CypB (Homo sapiens, UniProt P23284); test: SPR against N-truncated CypB (immobilised on CM5 chip)
N-truncated CypB, sequence (P23284 34-212): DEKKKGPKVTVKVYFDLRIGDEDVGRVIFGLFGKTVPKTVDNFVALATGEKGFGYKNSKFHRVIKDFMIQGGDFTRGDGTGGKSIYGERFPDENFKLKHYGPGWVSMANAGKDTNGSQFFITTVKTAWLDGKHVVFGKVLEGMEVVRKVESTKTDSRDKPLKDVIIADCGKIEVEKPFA

HIV-1 NL4.3 = test: Wild-type HIV-1 spreading infection in activated primary CD4+ T cells
Method: NL4.3 stocks were produced by transfection of HEK293T cells in 150 cm^2 flasks with 9 μg pNL4.3 using 60 μL Fugene 6 (E2692, Promega) according to the manufacturer’s instructions. Supernatants were harvested at 48 and 72 h, filtered, DNase treated, purified and concentrated by ultracentrifugation through a 20% sucrose cushion and resuspended in RPMI with 10% FBS. Viral titres were determined by measuring reverse transcriptase (RT) activity in mU by SG-PERT assay[86].
To infect activated primary CD4+ T cells with HIV-1, cells were mixed and incubated with HIV-1 NL4.3 virus (2000 mU RT/10^6 cells) for 4 h at 37 °C. […] After exposure to the virus, T cells were washed twice in PBS by centrifugation (400 × g, 5 min) and resuspended in fresh culture medium. […]
For primary T cell infection experiments, cells were washed in PBS and stained with fixable Zombie R685 Live/Dead dye (423119, BioLegend, 1:500) for 5 min at 37 °C. […] Intracellular CypA was detected by incubating permeabilised cells with CypA antibody (clone 1F4-1B5, ab58144, Abcam, 1:1000) for 30 min, followed by washing (PBS) and 15 min incubation with secondary anti-mouse AlexaFluor488- or AlexaFluor647-tagged antibody. After washing with PBS (700 × g, 5 min, 4 °C) to remove excess antibodies, data were acquired on a NovoSampler Pro (Agilent) and analysed using FlowJo v10.10 (Tree Star) or NovoExpress 1.5.0 (Agilent).

CC[C@@H]1NC(=O)[C@H]([C@H](O)[C@H](C)C/C=C/CCCCC(=O)N[C@H](C(=O)N2C[C@H](O)C[C@H]2C(=O)N[C@@H](C)c2ccc(-c3scnc3C)cc2)C(C)(C)C)N(C)C(=O)[C@H](C(C)C)N(C)C(=O)[C@H](CC(C)C)N(C)C(=O)[C@H](CC(C)C)N(C)C(=O)[C@@H](C)NC(=O)[C@H](C)NC(=O)[C@H](CC(C)C)N(C)C(=O)[C@H](C(C)C)NC(=O)[C@H](CC(C)C)N(C)C(=O)CN(C)C1=O [JW4-10]
degradation of CypA and CypB (CypA and CypB; 5 μM, 48 h): degraded both CypA and CypB | rescue by excess VHL inhibitor VH298 pretreatment (CypA and CypB; 50 µM VHLi 2 h before 5 µM PROTAC): rescued CypA, but not CypB | rescue by MLN4924 pretreatment (CypA and CypB; MLN4924 1 μM 6 h before 5 μM PROTAC): fully rescued CypA, but not CypB

NS(=O)(=O)OC[C@@H]1C[C@@H](n2ccc3c(N[C@H]4CCc5ccccc54)ncnc32)C[C@@H]1O [MLN4924, reference compound]
effect on CypA levels in the absence of PROTAC (CypA): no impact on CypA levels

C[C@@H]1NC(=O)[C@H](Cc2ccc([N+](=O)[O-])cc2)NC(=O)C/C=C/c2ccc3ccc(nc3c2)[C@@H](C)OC(=O)[C@@H]2CCCN(N2)C1=O [TWH106]
effect on CypA protein levels, time course (CypA; Jurkat cells, 5 μM, up to 6 days): did not reduce CypA levels except a small decrease after 6 days | effect on CypA levels, dose response (CypA; Jurkat cells, 0.01 – 10 μM, 24 h and 48 h): mild CypA loss only at 10 µM and after 24 hours | effect on CypA in proteomics (THP-1 cell proteome): did not affect CypA levels | effect on CypB levels, time course (CypB; 5 μM, 6 days): most effectively reduced | effect on CypB levels, dose response (CypB; 0.01–10 μM, 48 h): dose-dependent decrease in CypB | cell viability (MTT) (U87 cells): slightly toxic | cell viability (MTT) (Jurkat cells): toxic | antiviral activity against HCV replicon, pretreatment only (HCV JFH-1 replicon): abrogated | Kd (full-length human CypA; CypA KD, SPR equilibrium analysis, full-length CypA, mean of two independent experiments ± SD): 53 ± 5 nM | Kd (full-length human CypA; CypA dissociation constant (KD) from sigmoid fit, representative experiment, one of two independent experiments, Supplementary Fig. 2): 48 nM | Kd (N-truncated CypB; CypB KD, SPR equilibrium analysis, N-truncated CypB, mean of two independent experiments ± SD): 139 ± 24 nM | Kd (N-truncated CypB; CypB dissociation constant (KD) from sigmoid fit, representative experiment, one of two independent experiments, Supplementary Fig. 3): 163 nM | lower affinity for N-truncated CypB compared to CypA (N-truncated CypB; SPR KD CypB vs CypA): 2-3 fold | antiviral activity, pretreatment only (HIV-1 NL4.3; 5 μM 48 h pretreatment, not readded after infection): abrogated | antiviral activity (Gag+ cells, viral particles in supernatant) (HIV-1 NL4.3; continuous treatment 1 μM or 5 μM): antiviral

Cc1ncsc1-c1ccc(CNC(=O)[C@@H]2C[C@@H](O)CN2C(=O)[C@@H](NC(=O)C2(C#N)CC2)C(C)(C)C)cc1 [VH298, reference compound]
effect on CypA levels in the absence of PROTAC (CypA): did not impact CypA levels
